Assay results: patent US20230322724A1, “HETEROCYCLIC COMPOUNDS AS CBP/EP300 BROMODOMAIN INHIBITORS” (AURIGENE ONCOLOGY LIMITED, priority 2020, published 2023)

Target: T1, recombinant CREBBP bromodomain (Homo sapiens, UniProt Q92793)
T1 construct: recombinant CREBBP bromodomain obtained from BPS Bioscience, USA; purchased BPS Bioscience, USA
Assay: CBP TR-FRET displacement assay
Type: binding
Details: for IC50: dose-response, read-out: IC50 (group A, B, C)
Description: The potency of compounds to inhibit CREBBP enzyme was tested in a TR-FRET displacement assay using recombinant CREBBP bromodomain obtained from BPS Bioscience, USA. The assay buffer was 50 mM HEPES (pH 7.5), 50 mM NaCl, 0.008% Brij 35, 0.01% BSA, 1 mM TCEP. 50 nM of CREBBP & 500 nM of Biotinylated ligand was incubated at room temperature for 30 minutes, the reaction was initiated by adding pre-incubated enzyme ligand mixture to the test compounds. After 60 min incubation, the reaction was stopped by the addition of stop mix containing 1 nM of LANCE Europium-anti-6xHis antibody (Perkin Elmer, USA) and 40 nM of Sure Light Allophycocyanin-Streptavidin (Perkin Elmer, USA). Fluorescence emission of the samples at 665 and 615 nm were measured at an excitation of 340 nm and their ratio was plotted against the compound concentrations to generate dose-response curve. The percent inhibition of the test compounds is calculated using the ratio of enzyme activity controls.
elected compounds of the present invention were screened in the above-mentioned assay procedures and IC50 values were determined by fitting the dose-response data to sigmoidal curve fitting equation using Graph pad prism software V7.

T1 sequence (Q92793 1085-1192 limits assumed): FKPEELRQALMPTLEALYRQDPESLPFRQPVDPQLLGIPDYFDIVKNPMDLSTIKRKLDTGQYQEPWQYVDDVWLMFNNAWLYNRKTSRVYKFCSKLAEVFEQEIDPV

| IC50 | SMILES | further results |
| --- | --- | --- |
| < 50 nM | Cc1cc2c(N3CCN(C)c4cc(-c5cnn(C)c5)c(C#N)cc43)cc(OCc3ncco3)cc2n(C)c1=O [Example 41] | – |
| – | COc1cc2c(cc1-c1cnn(C)c1)CCCN2c1cccc2[nH]c(=O)c(C)cc12 [Example 188] | inhibition at 10 µM (compound at 10 μM): 25% |
| – | Cc1cc2c(N3CCN(C)c4cc(-c5cnn(C)c5)c(C#N)cc43)cc(OCC3CCCN(C)C3)cc2n(C)c1=O (single isomer, unassigned) [Example 248, 4-(1,3-Dimethyl-7-((1-methylpiperidin-3-yl)methoxy)-2-oxo-1,2-dihydroquinolin-5-yl)-1-methyl-7-(1-methyl-1H-pyrazol-4-yl)-1,2,3,4-tetrahydroquinoxaline-6-carbonitrile] | % Inhibition (10 μM) (compound at 10 μM, 10 µM): 100% |
| 51 to 100 nM | Cc1cc2c(N3CCN(C)c4cc(-c5cnn(C)c5)ncc43)cc(O)cc2n(C)c1=O [Example 145, 7-Hydroxy-1,3-dimethyl-5-(1-methyl-7-(1-methyl-1H-pyrazol-4-yl)-2,3-dihydropyrido[3,4-b]pyrazin-4(1H)-yl)quinolin-2(1H)-one] | – |
| 51 to 100 nM | Cc1cc2c(N3CCCc4cc(C5CCCO5)c(C(F)F)cc43)nc(N3CC[C@@H](O)C3)cc2n(C)c1=O (stereo partly shown) [Example 227] | – |
| > 10 nM | CNC(=O)N1CCN(c2cccc3c2cc(C)c(=O)n3C)c2ccc(-c3cnn(C)c3)cc21 [Example 75, 4-(1,3-Dimethyl-2-oxo-1,2-dihydroquinolin-5-yl)-N-methyl-7-(1-methyl-1H-pyrazol-4-yl)-3,4-dihydroquinoxaline-1(2H)-carboxamide] | – |
| < 50 nM | COc1cc2c(cc1-c1cnn(C)c1)CCCN2c1nc(C2CCOCC2)cc2c1cc(C)c(=O)n2C [Example 238] | – |
| > 10 nM | Cc1cc2c(N3CCN(C)c4ccc(S(N)(=O)=O)cc43)cc(OC(F)F)cc2n(C)c1=O [Example 97] | – |
| – | Cc1cc2c(N3CCc4ccc(-c5cnn(C)c5)cc4C3)cccc2n(C)c1=O [Example 190] | inhibition at 10 µM (compound at 10 μM): 52% |
| > 10 nM | COc1cc(N2CCCc3ccc(C#N)cc32)c2cc(C)c(=O)n(C)c2c1 [Example 184] | – |
| < 50 nM | Cc1cc2c(N3CCN(C)c4cc(-c5ccsc5)ncc43)cc(N3CCOCC3)cc2n(C)c1=O [Example 140] | – |
| > 10 nM | COc1cc(N2CCN(C)c3ccc([S+](C)[O-])cc32)c2cc(C)c(=O)n(C)c2c1 (single isomer, unassigned) [Example 250] | – |
| < 50 nM | Cc1cc2c(N3CCCc4cc(-c5cnn(C)c5)c(C(F)F)cc43)nc(N3CCN(C)CC3)cc2n(C)c1=O [Example 223] | – |
| > 10 nM | COc1cc(N2CCN(C)c3cc(S(N)(=O)=O)ccc32)c2cc(C)c(=O)n(C)c2c1 [Example 114, 1-(7-Methoxy-1,3-dimethyl-2-oxo-1,2-dihydroquinolin-5-yl)-4-methyl-1,2,3,4-tetrahydroquinoxaline-6-sulfonamide] | – |
| < 50 nM | CC(=O)NC1CCN(c2cc3c(cc(C)c(=O)n3C)c(N3CCCc4cc(-c5cnn(C)c5)c(C(F)F)cc43)n2)C1 (stereo not shown) [Example 216] | – |
| < 50 nM | CCN1CCN(c2cc(OC)cc3c2cc(C)c(=O)n3C)c2cc(C#N)c(N3CCN(C(C)=O)CC3)cc21 [Example 32] | – |
| – | CCc1cc2c(N3CCN(C)c4cc(-c5cnn(C)c5)c(C#N)cc43)cccc2[nH]c1=O [Example 50] | inhibition at 10 µM (compound at 10 μM): 90% |
| 51 to 100 nM | Cc1cc2c(N3CCN(C)c4cc(-c5cnn(C)c5)c(CO)cc43)cccc2[nH]c1=O [Example 58, 5-(7-(Hydroxymethyl)-4-methyl-6-(1-methyl-1H-pyrazol-4-yl)-3,4-dihydroquinoxalin-1(2H)-yl)-3-methylquinolin-2(1H)-one] | inhibition at 10 µM (compound at 10 μM): 91% |
| > 10 nM | Cc1cc2c(N3CCN(C)c4cc(-c5cnn(C)c5)ncc43)nc(N3C4CCC3COC4)cc2n(C)c1=O [Example 221] | – |
| > 10 nM | COc1cc(N2CCN(C)c3ccc(S(=O)(=O)NC(=O)C(C)(C)C)cc32)c2cc(C)c(=O)n(C)c2c1 [Example 111] | – |
| < 50 nM | COc1cc(N2CCN(C)c3cc(-c4cnn(C)c4)c(S(N)(=O)=O)cc32)c2cc(C)c(=O)n(C)c2c1 [Example 90] | – |
